Test results as given in ChEMBL document CHEMBL3217729, “Sangamides, a new class of cyclophilin-inhibiting host-targeted antivirals for treatment of HCV infection” (Medchemcomm, 2012).
Activity calls are given as the source filed them. The rule behind the calls is not given here.

Experiments:
[1] = target: T1, ATP-binding cassette sub-family C member 2 (Homo sapiens, UniProt Q92887); test: Inhibition of ATPase activity of MRP2 (unknown origin) expressed in membrane assessed as amount of phosphate released using probenecid as substrate at 14 uM by molybdenum blue assay
[2] = Selectivity index, ratio of CC50 for human Huh5-2 cells to EC50 for Hepatitis C virus genotype 1b I389luc-ubi-neo/NS3-3'/5.1 subgenomic replicon infected in human Huh5-2 cells; assay type: toxicity, cell-based, Huh-5-2; conditions: read-out: Ratio CC50/EC50
Liver = test: Drug level in CD-1 mouse liver at 5 mg/kg, po administered as single dose measured per gm of tissue for 24 hrs post-dose by LC-MS/MS analysis; assay type: ADME, organism-based; set-up: dose 5 mg/kg, route oral; conditions: in vivo
physchem = conditions: n-octanol/potassium phosphate buffer, pH 7.4
[3] = Ratio of drug level in liver to blood in CD-1 mouse at 5 mg/kg, po administered as single dose measured for 24 hrs post-dose by LC-MS/MS analysis; assay type: ADME, organism-based; set-up: dose 5 mg/kg, route oral; conditions: liver and blood
[4] = target: T2, Peptidyl-prolyl cis-trans isomerase A (Homo sapiens, UniProt P62937); test: Inhibition of recombinant GST-tagged CypA (unknown origin)/HCV Con1 NS5A-His interaction after 16 hrs by ELISA
Hepatitis C virus [5] = test: Antiviral activity against Hepatitis C virus genotype 2a JFH-1 infected in human Huh7 cells assessed as decrease in subgenomic RNA level after 72 hrs by RT-PCR analysis; assay type: functional, cell-based, Hepacivirus hominis; conditions: genotype 2a JFH-1, Huh-7, 72 h
[6] = Solubility of the compound in phosphate buffered saline at pH 7.4 after 4 hrs by LC-MS/MS analysis
[7] = target: T2, Peptidyl-prolyl cis-trans isomerase A; test: Inhibition of PPIase activity of recombinant CypA (unknown origin) assessed as chymotrypsin-mediated N-succinyl-Ala-Ala-Pro-Phe-p-nitroanilide hydrolysis after 1 hr by spectrophotometric analysis
Hepatitis C virus [8] = test: Antiviral activity against Hepatitis C virus genotype 1b Con1 infected in human Huh7 cells assessed as decrease in subgenomic RNA level after 72 hrs by RT-PCR analysis; assay type: functional, cell-based, Hepacivirus hominis; conditions: genotype 1b Con1, Huh-7, 72 h
[9] = target: ATP-dependent translocase ABCB1 (Homo sapiens, UniProt P08183); test: Inhibition of MDR1 (unknown origin) expressed in MDCK1 cells assessed as reduction of loperamide substrate permeability up to 50 uM after 60 mins by LC-MS/MS analysis; assay type: ADME, cell-based; conditions: mdck1, 1 h
Hepatitis C virus [10] = test: Antiviral activity against Hepatitis C virus genotype 1a H77 infected in human Huh7 cells assessed as decrease in subgenomic RNA level after 72 hrs by RT-PCR analysis; assay type: functional, cell-based, Hepacivirus hominis; conditions: genotype 1a H77, Huh-7, 72 h
[11] = Half life in human hepatocytes at 1 uM by LC-MS/MS analysis; assay type: ADME, cell-based, Hepatocyte
in vitro = conditions: mouse, liver microsomes
Description: Half life in mouse liver microsomes at 1 uM by LC-MS/MS analysis

[12] = Cytostatic activity against human Huh5-2 cells assessed as decrease in cell proliferation after 3 days by MTS method; assay type: ADME, cell-based, Huh-5-2
Hepatitis C virus [13] = test: Antiviral activity against Hepatitis C virus genotype 1b I389luc-ubi-neo/NS3-3'/5.1 subgenomic replicon infected in human Huh5-2 cells after 4 days by luciferase assay; assay type: functional, cell-based, Hepacivirus hominis; conditions: Huh-5-2, 96 h
[14] = target: T1, ATP-binding cassette sub-family C member 2; test: Inhibition of ATPase activity of MRP2 (unknown origin) expressed in membrane assessed as amount of phosphate released using probenecid as substrate up to 50 uM by molybdenum blue assay
[15] = Half life in human liver microsomes at 1 uM by LC-MS/MS analysis; assay type: ADME
Hepatitis C virus [16] = test: Antiviral activity against Hepatitis C virus genotype 1b Con1 infected in human Huh7 cells assessed as viral rebound by measuring replicon RNA content at 0.5 to 1 uM after drug removal by RT-qPCR analysis; assay type: functional, cell-based; conditions: Hepacivirus hominis, Huh-7
PBMC = test: Immunosuppressive activity in human PBMC isolated from two individuals assessed as inhibition of proliferation using [3H]thymidine by mixed lymphocyte reaction assay; assay type: cell-based
[17] = Drug level in CD-1 mouse blood at 5 mg/kg, po administered as single dose measured for 24 hrs post-dose by LC-MS/MS analysis; assay type: ADME, organism-based; set-up: dose 5 mg/kg, route oral; conditions: read-out: Drug uptake
[18] = Percentage bound in human plasma at 1 uM after 5 hrs by dialysis chamber method; assay type: ADME, cell-free; conditions: read-out: PPB (converted)

T2 sequence (P62937 whole entry): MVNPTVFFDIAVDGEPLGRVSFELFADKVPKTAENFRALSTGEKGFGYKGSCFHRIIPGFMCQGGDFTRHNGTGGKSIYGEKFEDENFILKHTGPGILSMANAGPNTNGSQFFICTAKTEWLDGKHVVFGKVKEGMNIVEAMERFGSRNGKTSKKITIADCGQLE
T1 sequence (Q92887 whole entry): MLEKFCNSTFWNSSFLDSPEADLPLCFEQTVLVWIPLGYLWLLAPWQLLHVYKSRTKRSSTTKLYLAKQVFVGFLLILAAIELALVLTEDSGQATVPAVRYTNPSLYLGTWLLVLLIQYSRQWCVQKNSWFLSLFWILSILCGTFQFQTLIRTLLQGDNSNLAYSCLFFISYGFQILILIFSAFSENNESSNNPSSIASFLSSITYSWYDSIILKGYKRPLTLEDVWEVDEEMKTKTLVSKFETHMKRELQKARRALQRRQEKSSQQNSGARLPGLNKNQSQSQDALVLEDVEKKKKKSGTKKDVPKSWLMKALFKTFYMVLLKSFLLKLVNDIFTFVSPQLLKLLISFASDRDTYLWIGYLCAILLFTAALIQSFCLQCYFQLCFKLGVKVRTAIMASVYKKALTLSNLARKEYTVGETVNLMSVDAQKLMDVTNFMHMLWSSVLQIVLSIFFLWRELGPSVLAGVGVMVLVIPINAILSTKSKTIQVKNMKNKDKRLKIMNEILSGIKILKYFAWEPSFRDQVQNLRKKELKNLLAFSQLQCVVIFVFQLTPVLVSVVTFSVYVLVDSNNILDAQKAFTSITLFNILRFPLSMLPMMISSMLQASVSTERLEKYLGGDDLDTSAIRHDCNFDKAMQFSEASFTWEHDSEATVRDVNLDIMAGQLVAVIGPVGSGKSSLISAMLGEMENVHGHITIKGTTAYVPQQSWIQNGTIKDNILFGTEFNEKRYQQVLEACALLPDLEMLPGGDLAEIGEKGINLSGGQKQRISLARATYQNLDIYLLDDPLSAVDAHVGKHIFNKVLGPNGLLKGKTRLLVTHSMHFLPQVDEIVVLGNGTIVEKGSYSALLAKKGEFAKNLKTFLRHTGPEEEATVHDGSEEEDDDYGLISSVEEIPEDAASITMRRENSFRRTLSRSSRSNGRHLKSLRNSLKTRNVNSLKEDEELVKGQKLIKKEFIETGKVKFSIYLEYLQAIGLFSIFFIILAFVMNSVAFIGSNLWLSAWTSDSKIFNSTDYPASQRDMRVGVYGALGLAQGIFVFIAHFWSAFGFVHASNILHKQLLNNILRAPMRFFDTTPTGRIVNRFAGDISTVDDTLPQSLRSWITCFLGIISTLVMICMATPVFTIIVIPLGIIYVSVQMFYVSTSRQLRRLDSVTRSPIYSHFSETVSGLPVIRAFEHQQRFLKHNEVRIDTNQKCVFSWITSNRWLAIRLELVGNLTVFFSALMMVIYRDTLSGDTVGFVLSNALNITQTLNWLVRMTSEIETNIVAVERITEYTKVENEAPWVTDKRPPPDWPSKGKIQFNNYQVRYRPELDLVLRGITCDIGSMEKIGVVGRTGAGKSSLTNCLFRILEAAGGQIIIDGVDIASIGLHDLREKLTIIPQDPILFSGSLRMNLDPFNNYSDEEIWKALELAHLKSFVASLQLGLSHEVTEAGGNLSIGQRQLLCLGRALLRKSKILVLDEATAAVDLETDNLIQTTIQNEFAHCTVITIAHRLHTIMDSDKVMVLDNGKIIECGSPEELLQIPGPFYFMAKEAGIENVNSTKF
Chain of ATP-dependent translocase ABCB1 (P08183 whole entry): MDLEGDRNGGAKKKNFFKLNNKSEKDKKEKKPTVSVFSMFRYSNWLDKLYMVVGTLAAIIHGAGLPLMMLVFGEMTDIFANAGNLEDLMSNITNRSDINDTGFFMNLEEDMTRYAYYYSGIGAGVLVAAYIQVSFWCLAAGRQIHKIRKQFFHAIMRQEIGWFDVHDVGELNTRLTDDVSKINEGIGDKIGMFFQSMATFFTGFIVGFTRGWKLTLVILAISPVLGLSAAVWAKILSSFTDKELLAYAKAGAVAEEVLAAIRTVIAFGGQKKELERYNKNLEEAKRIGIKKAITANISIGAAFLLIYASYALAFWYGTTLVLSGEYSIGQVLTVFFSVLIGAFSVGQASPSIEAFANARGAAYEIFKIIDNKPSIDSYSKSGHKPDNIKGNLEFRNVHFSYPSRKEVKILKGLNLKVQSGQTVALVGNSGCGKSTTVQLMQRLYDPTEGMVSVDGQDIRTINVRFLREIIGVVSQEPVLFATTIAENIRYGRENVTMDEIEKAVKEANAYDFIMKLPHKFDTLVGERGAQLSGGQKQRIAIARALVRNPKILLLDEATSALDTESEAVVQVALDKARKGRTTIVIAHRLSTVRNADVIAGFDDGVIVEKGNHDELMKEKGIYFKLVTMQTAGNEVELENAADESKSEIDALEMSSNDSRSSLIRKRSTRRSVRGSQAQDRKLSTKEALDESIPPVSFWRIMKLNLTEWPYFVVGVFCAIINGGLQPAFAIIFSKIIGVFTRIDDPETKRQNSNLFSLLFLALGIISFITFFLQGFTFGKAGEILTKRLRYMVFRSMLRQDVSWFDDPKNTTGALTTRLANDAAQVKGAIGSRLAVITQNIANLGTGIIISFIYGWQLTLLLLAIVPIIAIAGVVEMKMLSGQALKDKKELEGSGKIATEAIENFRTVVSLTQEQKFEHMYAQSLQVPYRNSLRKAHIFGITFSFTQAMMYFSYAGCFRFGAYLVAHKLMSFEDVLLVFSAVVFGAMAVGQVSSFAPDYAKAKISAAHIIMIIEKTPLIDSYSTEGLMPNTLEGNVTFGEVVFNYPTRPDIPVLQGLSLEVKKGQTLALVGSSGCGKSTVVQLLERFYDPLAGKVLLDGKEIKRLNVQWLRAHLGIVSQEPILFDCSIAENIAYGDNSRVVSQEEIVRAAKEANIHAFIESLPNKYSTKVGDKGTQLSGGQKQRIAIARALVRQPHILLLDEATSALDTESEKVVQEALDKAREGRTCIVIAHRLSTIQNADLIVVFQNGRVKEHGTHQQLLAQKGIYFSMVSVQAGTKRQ

SMILES	selectivity ratio [2]	logD at 1 h (physchem)	IC50 [4]	EC50 (Hepatitis C virus [5])	solubility at 4 h [6]	IC50 [7]	EC50 (Hepatitis C virus [8])	EC50 (Hepatitis C virus [10])	half-life at 1 µM [11]	half-life at 1 µM (in vitro)	CC50 at 72 h [12]	EC50 (Hepatitis C virus [13])	EC90 (Hepatitis C virus [13])	half-life at 1 µM [15]	IC50 (PBMC)	also measured
CCc1oc2ccccc2c1C(=O)c1cc(Br)c(O)c(Br)c1 [BENZBROMARONE]																inhibition (INH) [1]: Active
CC(=O)CC[C@H]1C(=O)N[C@@H](C(C)C)C(=O)N[C@@H](Cc2cccc(O)c2)C(=O)N2CCCC(N2)C(=O)O[C@H](/C(C)=C/C=C/C(=O)N2CCCCO2)C/C=C/C=C/[C@H](O)[C@H](C)[C@H]1O (stereo partly drawn)	> 800	2.6	360 nM	89 nM	> 100 µM	2.7 nM	58 nM	63 nM	220 min	5.8 min	> 100 µM	125 nM	690 nM	10.6 min	1450 nM	Drug uptake (Liver): 20 ng; Kp at 24 h [3]: 3; inhibition (INH) [9]: Not Active; inhibition (INH) [14]: Not Active; Activity (Hepatitis C virus [16]): Active; concentration at 24 h [17]: 20 ng/mL
CON(C)C(=O)/C=C/C=C(\C)[C@@H]1C/C=C/C=C/[C@H](O)[C@H](C)[C@@H](O)[C@@H](CCC(C)=O)C(=O)N[C@@H](C(C)C)C(=O)N[C@@H](Cc2cccc(O)c2)C(=O)N2CCCC(N2)C(=O)O1 (stereo partly drawn)	> 617	2.3	200 nM	247 nM	> 100 µM	1.1 nM	128 nM	156 nM	> 240 min	17.5 min	> 100 µM	162 nM	920 nM	26.5 min	1060 nM	fraction unbound at 5 h, 1 µM [18]: 0.73
